Data: patent publication US10813888B2, “Formulations of cysteamine and cysteamine derivatives” (RECORDATI INDUSTRIA CHIMICA E FARMACEUTICA SPA, priority 2016, dated 2020)

Assay: In vitro dissolution test, USP Apparatus II at pH 1.2 for 1 hour
Type: physicochemical
Experimental: The in vitro dissolution tests were conducted in an USP Apparatus II at pH 1.2 for 1 hour. The cysteamine bitartrate raw material was completely dissolved in 10 minutes.

For `NCCS.O=C(O)C(O)C(O)C(=O)O` (stereo not shown) [cysteamine bitartrate raw material, cysteamine bitartrate], which “time to complete dissolution” value is on record?
The value was 10 min.
